Legend:
[1] = biological target: T1, ABI1 (Arabidopsis thaliana, UniProt P49597); experiment: SPR, 3AESA immobilised on CM5 chip; format: binding; conditions: 3AESA amide-coupled to chip; 1 uM protein; competed by SA
T1 construct: ORF from Arabidopsis cDNA library in pET28a, His6-tagged, E. coli Rosetta 2 (DE3), Ni-NTA and gel filtration
T1 sequence (P49597 1-434): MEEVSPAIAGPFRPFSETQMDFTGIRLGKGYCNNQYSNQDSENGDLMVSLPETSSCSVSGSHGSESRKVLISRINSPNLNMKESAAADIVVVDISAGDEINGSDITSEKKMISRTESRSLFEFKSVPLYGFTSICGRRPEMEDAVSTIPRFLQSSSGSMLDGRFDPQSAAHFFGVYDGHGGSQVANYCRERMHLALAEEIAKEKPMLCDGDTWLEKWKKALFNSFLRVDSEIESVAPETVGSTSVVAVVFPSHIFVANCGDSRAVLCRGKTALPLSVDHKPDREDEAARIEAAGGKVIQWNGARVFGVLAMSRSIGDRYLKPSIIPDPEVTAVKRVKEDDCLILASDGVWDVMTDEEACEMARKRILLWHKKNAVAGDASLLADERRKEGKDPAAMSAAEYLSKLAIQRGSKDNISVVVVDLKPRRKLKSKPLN

[2] = biological target: T2, PP2C-D4 (Arabidopsis thaliana, UniProt Q94CL8); experiment: SPR, 3AESA immobilised on CM5 chip; format: binding; conditions: 3AESA amide-coupled to chip; 1 uM protein; competed by SA
T2 construct: gene PP2C6; ORF from Arabidopsis cDNA library in pET42a (NdeI/XhoI), His6-tagged, E. coli Rosetta 2 (DE3), Ni-NTA and gel filtration
T2 sequence (Q94CL8 1-384): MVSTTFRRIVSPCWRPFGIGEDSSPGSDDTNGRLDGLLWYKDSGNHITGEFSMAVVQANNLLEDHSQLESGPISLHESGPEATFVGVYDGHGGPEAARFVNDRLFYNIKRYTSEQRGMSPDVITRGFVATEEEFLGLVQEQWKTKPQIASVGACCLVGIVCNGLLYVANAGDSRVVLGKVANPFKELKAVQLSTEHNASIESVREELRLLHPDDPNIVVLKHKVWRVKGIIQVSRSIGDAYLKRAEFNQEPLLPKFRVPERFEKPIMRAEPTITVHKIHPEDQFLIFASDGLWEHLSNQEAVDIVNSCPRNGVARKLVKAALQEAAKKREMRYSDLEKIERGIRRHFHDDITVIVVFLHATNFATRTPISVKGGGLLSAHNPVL

[3] = biological target: T3, ABI2 (Arabidopsis thaliana, UniProt O04719); experiment: SPR, 3AESA immobilised on CM5 chip; format: binding; conditions: 3AESA amide-coupled to chip; 1 uM protein; competed by SA
T3 construct: ORF from Arabidopsis cDNA library in pET28a, His6-tagged, E. coli Rosetta 2 (DE3), Ni-NTA and gel filtration
T3 sequence (O04719 1-423): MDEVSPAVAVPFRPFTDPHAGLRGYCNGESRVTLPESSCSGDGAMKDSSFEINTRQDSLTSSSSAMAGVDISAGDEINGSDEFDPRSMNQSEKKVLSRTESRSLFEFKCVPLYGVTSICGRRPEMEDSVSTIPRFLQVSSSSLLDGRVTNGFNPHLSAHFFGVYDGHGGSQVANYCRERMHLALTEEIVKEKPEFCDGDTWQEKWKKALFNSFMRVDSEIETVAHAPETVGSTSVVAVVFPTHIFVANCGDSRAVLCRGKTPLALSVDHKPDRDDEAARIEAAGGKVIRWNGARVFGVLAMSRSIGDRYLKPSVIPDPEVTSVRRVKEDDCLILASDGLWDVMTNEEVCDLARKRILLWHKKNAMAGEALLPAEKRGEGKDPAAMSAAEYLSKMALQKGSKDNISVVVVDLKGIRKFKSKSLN

[4] = biological target: T3, ABI2; experiment: photoaffinity crosslinking, anti-SA immunoblot; format: binding; conditions: 50 uM 4AzSA; 50 ng protein; photo-activated, covalent; competed by SA
[5] = biological target: T1, ABI1; experiment: photoaffinity crosslinking, anti-SA immunoblot; format: binding; conditions: 50 uM 4AzSA; 50 ng protein; photo-activated, covalent; competed by SA
[6] = biological target: T4, PYL1 with ABI1 (Arabidopsis thaliana, UniProt Q8VZS8); experiment: SPR of ABI1 binding to immobilised PYL1, enhanced by ABA; conditions: indirect: ABA-enhanced receptor-PP2C interaction; HBS-EP buffer
T4 construct: His6-SUMO-tagged PYL1 immobilised on CM5 chip; His6-ABI1 as analyte; both from E. coli; with Protein phosphatase 2C 56
T4 sequence (Q8VZS8 2-221): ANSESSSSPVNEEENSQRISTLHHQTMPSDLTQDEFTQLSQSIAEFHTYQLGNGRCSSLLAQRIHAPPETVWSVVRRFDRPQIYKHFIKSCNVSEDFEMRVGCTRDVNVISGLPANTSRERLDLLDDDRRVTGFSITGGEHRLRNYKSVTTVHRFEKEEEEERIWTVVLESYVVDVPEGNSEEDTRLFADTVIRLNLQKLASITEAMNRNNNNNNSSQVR
T4 sequence (P49597 1-434 partner): T1 sequence (P49597 1-434)

[7] = biological target: T5, PYR1 with ABI1 (Arabidopsis thaliana, UniProt O49686); experiment: SPR of ABI1 binding to immobilised PYR1, enhanced by ABA; conditions: indirect: ABA-enhanced receptor-PP2C interaction; HBS-EP buffer
T5 construct: His-SUMO-tagged PYR1 immobilised on CM5 chip; His6-ABI1 as analyte; both from E. coli; with Protein phosphatase 2C 56
T5 sequence (O49686 1-191): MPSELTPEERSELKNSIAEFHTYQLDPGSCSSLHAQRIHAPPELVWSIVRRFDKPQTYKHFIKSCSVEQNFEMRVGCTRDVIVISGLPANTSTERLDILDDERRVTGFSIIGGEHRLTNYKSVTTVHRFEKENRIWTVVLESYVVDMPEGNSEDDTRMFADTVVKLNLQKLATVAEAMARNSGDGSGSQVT
T5 sequence (P49597 1-434 partner): T1 sequence (P49597 1-434)

[8] = biological target: T6, PYL2 with ABI1 (Arabidopsis thaliana, UniProt O80992); experiment: SPR of ABI1 binding to immobilised PYL2, enhanced by ABA; conditions: indirect: ABA-enhanced receptor-PP2C interaction; HBS-EP buffer
T6 construct: His-SUMO-tagged PYL2 immobilised on CM5 chip; His6-ABI1 as analyte; both from E. coli; with Protein phosphatase 2C 56
T6 sequence (O80992 1-190): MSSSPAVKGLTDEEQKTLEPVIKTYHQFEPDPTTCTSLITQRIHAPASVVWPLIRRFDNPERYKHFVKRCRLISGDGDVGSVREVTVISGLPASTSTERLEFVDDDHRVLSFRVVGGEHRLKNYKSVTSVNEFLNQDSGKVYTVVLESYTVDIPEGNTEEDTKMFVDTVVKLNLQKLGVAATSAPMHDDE
T6 sequence (P49597 1-434 partner): T1 sequence (P49597 1-434)

[9] = biological target: T1, ABI1; experiment: size-exclusion chromatography with [3H]SA; format: binding; conditions: 200 nM [3H]SA; 200 ng/ul protein; labelled compound
[10] = biological target: T3, ABI2; experiment: size-exclusion chromatography with [3H]SA; format: binding; conditions: 200 nM [3H]SA; 200 ng/ul protein; labelled compound
[11] = biological target: T2, PP2C-D4; experiment: size-exclusion chromatography with [3H]SA; format: binding; conditions: 200 nM [3H]SA; 200 ng/ul protein; labelled compound

For `NCCc1cccc(C(=O)O)c1O` [3AESA], the “SPR, 3AESA immobilised on CM5 chip” value [1] was “recombinant ABI1 and ABI2 bound the 3AESA‐immobilized sensor chip and crosslinked with 4AzSA”, the “SPR, 3AESA immobilised on CM5 chip” value [2] was “Binding to 3AESA was detected when purified PP2C‐D4 was passed over the sensor chip” and the “SPR, 3AESA immobilised on CM5 chip” value [3] was “recombinant ABI1 and ABI2 bound the 3AESA‐immobilized sensor chip and crosslinked with 4AzSA”.

In the case of `[N-]=[N+]=Nc1ccc(C(=O)O)c(O)c1` [4AzSA], the “photoaffinity crosslinking, anti-SA immunoblot” value [4] was “recombinant ABI1 and ABI2 bound the 3AESA‐immobilized sensor chip and crosslinked with 4AzSA” and the “photoaffinity crosslinking, anti-SA immunoblot” value [5] was “recombinant ABI1 and ABI2 bound the 3AESA‐immobilized sensor chip and crosslinked with 4AzSA”.

With `CC1=CC(=O)CC(C)(C)[C@@]1(O)/C=C/C(C)=C\C(=O)O` [ABA] the “SPR of ABI1 binding to immobilised PYL1, enhanced by ABA” value [6] was “this binding was enhanced several fold in the presence of ABA”, the “SPR of ABI1 binding to immobilised PYR1, enhanced by ABA” value [7] was “dose‐dependent binding to the PP2Cs, which was further enhanced in the presence of ABA” and the “SPR of ABI1 binding to immobilised PYL2, enhanced by ABA” value [8] was “dose‐dependent binding to the PP2Cs, which was further enhanced in the presence of ABA”.

`O=C(O)c1ccccc1O` [SA] was tested, and the “size-exclusion chromatography with [3H]SA” value [9] was “ABI1 exhibited relatively weak binding to [^3H]SA”, the “size-exclusion chromatography with [3H]SA” value [10] was “ABI2's binding to [^3H]SA was comparable to that of PP2C‐D4” and the “size-exclusion chromatography with [3H]SA” value [11] was “PP2C‐D4's ability to bind SA also was confirmed by size‐exclusion chromatography using [^3H]SA”.
